# In PubChem BioAssay (NCI):
#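 The compound was tested at five concentrations on cells cultured in 96-well plates, with a 48-hour exposure period. TGI is the concentration that stops growth completely.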
# How the values were obtained:
# Assay in all cases: inhibition of tumour cell growth, NCI panel, 48 h
# CCRF-CEM leukemia = system: CCRF-CEM leukemia
# HCT-15 colon = system: HCT-15 colon
# KM12 colon = system: KM12 colon
# SF-539 CNS = system: SF-539 CNS
# SK-MEL-2 melanoma = system: SK-MEL-2 melanoma
# SN12C renal = system: SN12C renal
# UO-31 renal = system: UO-31 renal
# MDA-MB-231 breast = system: MDA-MB-231 breast
# PC-3 prostate = system: PC-3 prostate
# SK-MEL-28 melanoma = system: SK-MEL-28 melanoma
SMILES,TGI (CCRF-CEM leukemia) [µM],TGI (HCT-15 colon) [µM],TGI (KM12 colon) [µM],TGI (SF-539 CNS) [µM],TGI (SK-MEL-2 melanoma) [µM],TGI (SN12C renal) [µM],TGI (UO-31 renal) [µM],TGI (MDA-MB-231 breast) [µM],TGI (PC-3 prostate) [µM],TGI (SK-MEL-28 melanoma) [µM]
c1ccc(C2C3=C(Nc4ncnn42)c2ccccc2C3)cc1 (centres undefined),> 100,> 100,> 100,34.2,> 100,> 100,> 100,,,
COc1ccc(N2C(=O)C3c4[nH]c5ccc(OCc6ccccc6)cc5c4C4CCC(C(C)(C)C)CC4C3C2=O)cc1 (centres undefined),,> 100,> 100,> 100,> 100,> 100,,> 100,> 100,> 100
O=C1/C(=C/c2ccccc2)N=C(c2ccccc2)N1n1c(-c2ccccc2)nc2ccccc2c1=O,> 100,> 100,> 100,> 100,,> 100,> 100,> 100,> 100,> 100
NC(C(F)(F)F)(C(F)(F)F)P(=O)(Cc1ccccc1)Cc1ccccc1,> 100,> 100,> 100,> 100,> 100,> 100,> 100,> 100,> 100,> 100
CCCCCCCCCCCCCCCCCCNc1ccn(C2OC(COP(=O)(O)OCC3OC(n4ccc(NC(=O)CCCCCCCCCCCCCCCCC)nc4=O)C(OC(C)=O)C3OC(C)=O)C(OC(C)=O)C2OC(C)=O)c(=O)n1 (centres undefined),> 100,> 100,> 100,> 100,> 100,> 100,> 100,> 100,> 100,> 100
COc1ccc(C2Oc3c(cc(O)c(OC)c3C)[C@@H]2C)cc1OC (some centres undefined),> 100,,> 100,> 100,> 100,,> 100,,,> 100
CC1(C)OCC(COC(=O)C=[N+]=[N-])O1 (centres undefined),> 100,> 100,> 100,,> 100,> 100,> 100,> 100,> 100,> 100
Nc1nc2cc3nc(N)c(N)nc3cc2nc1N,> 100,> 100,> 100,> 100,> 100,> 100,> 100,> 100,> 100,> 100
S=C(N/N=C\C=N/NC(=S)N1CCCCC1)N1CCCCC1,,> 100,> 100,> 100,,> 100,> 63.1,> 100,> 100,> 100
CC(O[Si](c1ccccc1)(c1ccccc1)C(C)(C)C)[C@H](NC(=O)OC(C)(C)C)C(=O)O[Si](c1ccccc1)(c1ccccc1)C(C)(C)C (some centres undefined),76.6,18.8,24.3,,,,26.3,,20.5,28.5
CC1(O)CC(C(F)(F)F)(C(F)(F)F)OC1=O (centres undefined),> 10,> 10,> 10,> 10,,> 10,> 10,> 10,> 10,> 10
COc1cc(O)c(/C=N/N=C(\N)NO)c(OC)c1,> 10,> 10,> 10,> 10,> 10,> 10,> 10,> 10,> 10,> 10
CC(C)c1ccc2[nH]c(O)c(-c3[nH]c4ccccc4c3N=O)c2c1,12.9,14.8,15.6,,15.1,16.8,12,29.8,19.4,26.7
O=C(/C=C/c1ccc(O)c([N+](=O)[O-])c1)CC(=O)/C=C/c1ccc(O)c([N+](=O)[O-])c1,> 100,> 100,97.6,> 100,> 100,> 100,> 100,68,> 100,> 100
CN(C)CCCOc1nc2c(c(=O)n(C)c(=O)n2C)n1C (tested in a mixture with another compound),> 100,42.9,> 100,58.3,> 100,30.1,> 100,32.2,> 100,> 100
COc1ccc(-c2cc(-c3ccco3)c(C#N)c(=S)n2C2OC(COC(C)=O)C(OC(C)=O)C(OC(C)=O)C2OC(C)=O)cc1 (centres undefined),,> 100,33.4,4.56,,24,27.2,16.1,16.5,12.7
CC(C)(C)C1=C(Br)C(Br)(C(C)(C)C)OP1(=O)c1ccccc1 (centres undefined),,> 100,> 100,> 100,> 100,> 100,> 100,,> 100,> 100
CC(C)(C)c1ccc2c(c1)CNCCNCc1cc(C(C)(C)C)ccc1OCC1(CO2)COc2ccc(C(C)(C)C)cc2CNCCNCc2cc(C(C)(C)C)ccc2OC1,0.68,2.17,0.933,2.76,2.89,,3.25,0.623,2.93,3.05
O=C(CC(=O)n1nc(-c2ccccc2)c(N=Nc2ccccc2C(=O)O)c1-c1ccccc1)Nc1ccc(Cl)cc1,,> 100,> 100,,> 100,,47.8,> 100,> 100,> 100
OCC1CCCCCCCCCCC12SCCCS2 (centres undefined),> 100,> 100,> 100,,> 100,,> 100,,> 100,> 100
COc1cc2c(cc1OC)C1=Cc3cc(OC)c(OC)cc3C(C)N1C=C2 (centres undefined),> 100,> 100,> 100,> 100,,> 100,> 100,,> 100,> 100
N.N.N.O=[N+]([O-])[O-].O=[N+]([O-])[O-].O=[N+]([O-])[O-].O=[N+]([O-])[O-].[Co+3],> 100,> 100,> 100,> 100,> 100,> 100,> 100,,,> 100
Cn1cc2ccccc2c1-c1nc(N)nc(F)n1,> 100,> 100,> 100,> 100,> 100,> 100,> 100,,,> 100
